Assay results published in ChEMBL document CHEMBL3632483, “Synthesis and pharmacological evaluation of piperidine (piperazine)-substituted benzoxazole derivatives as multi-target antipsychotics” (Bioorg Med Chem Lett, 2015).

Legend:
[1] = biological target: D(2) dopamine receptor (Rattus norvegicus, UniProt P61169); assay: Displacement of [3H]spiperone from dopaminergic D2 receptor in rat striatum homogenates after 60 mins by liquid scintillation counting
[2] = biological target: T1, 5-hydroxytryptamine receptor 1A (Rattus norvegicus, UniProt P19327); assay: Displacement of [3H]8-OH-DPAT from 5-HT1A receptor in rat cerebral cortex homogenates after 60 mins by liquid scintillation counting; type: tissue-based
T1 sequence (P19327 whole entry): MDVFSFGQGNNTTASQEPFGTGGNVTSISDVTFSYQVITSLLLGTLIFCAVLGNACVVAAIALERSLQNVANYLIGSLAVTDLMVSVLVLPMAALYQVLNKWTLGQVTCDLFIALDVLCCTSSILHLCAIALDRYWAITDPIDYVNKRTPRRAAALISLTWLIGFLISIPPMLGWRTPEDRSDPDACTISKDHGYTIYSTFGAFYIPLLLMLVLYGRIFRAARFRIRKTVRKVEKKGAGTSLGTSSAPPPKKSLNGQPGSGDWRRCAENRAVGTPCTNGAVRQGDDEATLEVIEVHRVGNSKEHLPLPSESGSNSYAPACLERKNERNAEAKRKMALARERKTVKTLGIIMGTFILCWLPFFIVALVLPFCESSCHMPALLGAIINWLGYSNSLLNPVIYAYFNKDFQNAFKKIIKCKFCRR

[3] = biological target: 5-hydroxytryptamine receptor 2A (Rattus norvegicus, UniProt P14842); assay: Displacement of [3H]ketanserine from 5-HT2A receptor in rat cerebral cortex homogenates after 60 mins by liquid scintillation counting; type: tissue-based
[4] = biological target: T2, Adrenergic receptor alpha-2 (Rattus norvegicus, UniProt P22086+P19328+P22909); assay: Displacement of [3H]-rauwolscine from adrenergic alpha2 receptor in rat cerebral cortex homogenates after 60 mins by liquid scintillation counting; type: tissue-based
T2 sequence (P22086 whole entry): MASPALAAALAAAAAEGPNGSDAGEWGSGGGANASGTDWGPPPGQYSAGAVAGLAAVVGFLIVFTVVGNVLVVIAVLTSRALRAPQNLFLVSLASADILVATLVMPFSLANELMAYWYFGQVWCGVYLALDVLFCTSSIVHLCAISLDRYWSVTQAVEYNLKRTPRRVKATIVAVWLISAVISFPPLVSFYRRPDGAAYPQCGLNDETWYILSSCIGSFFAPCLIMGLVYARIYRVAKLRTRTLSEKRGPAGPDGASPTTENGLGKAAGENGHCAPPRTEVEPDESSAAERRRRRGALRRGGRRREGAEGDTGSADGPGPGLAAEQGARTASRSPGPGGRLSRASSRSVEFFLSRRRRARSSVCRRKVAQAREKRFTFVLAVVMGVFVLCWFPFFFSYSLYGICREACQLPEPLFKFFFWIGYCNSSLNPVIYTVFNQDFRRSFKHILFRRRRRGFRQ
T2 sequence (P19328 whole entry): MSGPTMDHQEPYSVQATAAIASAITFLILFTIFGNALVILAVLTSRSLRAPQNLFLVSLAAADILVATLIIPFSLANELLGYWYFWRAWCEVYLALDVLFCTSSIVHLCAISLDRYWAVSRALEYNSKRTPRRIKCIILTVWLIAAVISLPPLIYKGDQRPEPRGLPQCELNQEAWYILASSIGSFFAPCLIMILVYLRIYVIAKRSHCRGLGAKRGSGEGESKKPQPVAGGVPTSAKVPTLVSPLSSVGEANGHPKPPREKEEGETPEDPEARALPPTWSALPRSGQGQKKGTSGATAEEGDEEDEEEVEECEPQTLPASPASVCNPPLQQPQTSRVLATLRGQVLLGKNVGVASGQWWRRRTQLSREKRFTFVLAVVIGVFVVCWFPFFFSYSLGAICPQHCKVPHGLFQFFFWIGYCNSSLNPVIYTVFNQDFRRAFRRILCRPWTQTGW
T2 sequence (P22909 whole entry): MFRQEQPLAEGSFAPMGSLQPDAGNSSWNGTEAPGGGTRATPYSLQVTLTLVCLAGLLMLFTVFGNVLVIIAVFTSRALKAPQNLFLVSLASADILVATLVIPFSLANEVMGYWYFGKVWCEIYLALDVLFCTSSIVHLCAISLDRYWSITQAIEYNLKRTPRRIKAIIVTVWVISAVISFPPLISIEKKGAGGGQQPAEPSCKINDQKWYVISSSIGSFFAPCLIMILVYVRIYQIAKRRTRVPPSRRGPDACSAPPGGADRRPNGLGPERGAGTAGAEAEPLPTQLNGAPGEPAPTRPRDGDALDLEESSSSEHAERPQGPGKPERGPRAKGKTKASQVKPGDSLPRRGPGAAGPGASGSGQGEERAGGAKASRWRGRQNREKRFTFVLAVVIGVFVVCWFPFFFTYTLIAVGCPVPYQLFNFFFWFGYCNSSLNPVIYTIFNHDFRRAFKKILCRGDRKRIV

[5] = biological target: T3, 5-hydroxytryptamine receptor 2C (Rattus norvegicus, UniProt P08909); assay: Displacement of [3H]mesulergine from 5-HT2C receptor in rat cerebral cortex homogenates after 60 mins by liquid scintillation counting; type: tissue-based
T3 sequence (P08909 whole entry): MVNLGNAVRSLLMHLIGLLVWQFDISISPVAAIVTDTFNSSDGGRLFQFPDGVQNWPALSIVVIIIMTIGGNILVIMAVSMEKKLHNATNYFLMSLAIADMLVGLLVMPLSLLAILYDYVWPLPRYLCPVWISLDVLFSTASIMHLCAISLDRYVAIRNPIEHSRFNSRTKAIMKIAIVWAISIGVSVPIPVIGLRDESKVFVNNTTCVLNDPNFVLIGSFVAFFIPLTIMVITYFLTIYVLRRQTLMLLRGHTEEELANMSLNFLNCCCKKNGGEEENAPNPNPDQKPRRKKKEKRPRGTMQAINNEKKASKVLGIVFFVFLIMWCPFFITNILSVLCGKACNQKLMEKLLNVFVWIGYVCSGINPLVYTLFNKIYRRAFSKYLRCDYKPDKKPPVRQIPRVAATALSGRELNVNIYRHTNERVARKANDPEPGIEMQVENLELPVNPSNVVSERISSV

[6] = Acute toxicity in Sprague-Dawley rat; type: organism-based; details: in vivo
[7] = biological target: 5-hydroxytryptamine receptor 7 (Rattus norvegicus, UniProt P32305); assay: biochemical
Sequence of 5-hydroxytryptamine receptor 7 (P32305 whole entry): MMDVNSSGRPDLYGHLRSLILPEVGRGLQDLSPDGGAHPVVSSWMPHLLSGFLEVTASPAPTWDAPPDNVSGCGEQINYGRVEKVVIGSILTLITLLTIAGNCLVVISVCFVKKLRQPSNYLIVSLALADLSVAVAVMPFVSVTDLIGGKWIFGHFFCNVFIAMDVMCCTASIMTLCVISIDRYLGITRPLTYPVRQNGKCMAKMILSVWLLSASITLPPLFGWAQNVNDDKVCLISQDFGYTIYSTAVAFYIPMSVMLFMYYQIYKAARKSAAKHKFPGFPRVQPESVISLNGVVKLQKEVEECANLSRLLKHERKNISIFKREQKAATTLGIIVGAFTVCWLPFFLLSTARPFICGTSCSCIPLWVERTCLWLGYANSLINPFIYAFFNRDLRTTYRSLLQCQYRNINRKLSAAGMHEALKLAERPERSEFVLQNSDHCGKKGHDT
Description: Displacement of [3H]-5-CT from 5-HT7 receptor in rat hypothalamus homogenates after 120 mins by liquid scintillation counting

Sequence of 5-hydroxytryptamine receptor 2A (P14842 whole entry): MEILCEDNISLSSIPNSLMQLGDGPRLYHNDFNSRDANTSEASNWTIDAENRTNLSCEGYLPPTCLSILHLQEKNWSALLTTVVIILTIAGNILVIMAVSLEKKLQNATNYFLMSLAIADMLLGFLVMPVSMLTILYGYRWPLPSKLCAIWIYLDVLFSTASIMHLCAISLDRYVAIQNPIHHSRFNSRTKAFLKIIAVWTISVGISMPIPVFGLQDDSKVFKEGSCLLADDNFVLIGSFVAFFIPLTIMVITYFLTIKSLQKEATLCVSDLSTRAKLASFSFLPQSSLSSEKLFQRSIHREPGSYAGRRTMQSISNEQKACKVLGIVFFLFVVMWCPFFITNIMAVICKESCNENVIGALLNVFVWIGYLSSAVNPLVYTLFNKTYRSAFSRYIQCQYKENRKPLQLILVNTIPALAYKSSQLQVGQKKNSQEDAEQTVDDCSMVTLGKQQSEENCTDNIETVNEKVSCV
Sequence of D(2) dopamine receptor (P61169 whole entry): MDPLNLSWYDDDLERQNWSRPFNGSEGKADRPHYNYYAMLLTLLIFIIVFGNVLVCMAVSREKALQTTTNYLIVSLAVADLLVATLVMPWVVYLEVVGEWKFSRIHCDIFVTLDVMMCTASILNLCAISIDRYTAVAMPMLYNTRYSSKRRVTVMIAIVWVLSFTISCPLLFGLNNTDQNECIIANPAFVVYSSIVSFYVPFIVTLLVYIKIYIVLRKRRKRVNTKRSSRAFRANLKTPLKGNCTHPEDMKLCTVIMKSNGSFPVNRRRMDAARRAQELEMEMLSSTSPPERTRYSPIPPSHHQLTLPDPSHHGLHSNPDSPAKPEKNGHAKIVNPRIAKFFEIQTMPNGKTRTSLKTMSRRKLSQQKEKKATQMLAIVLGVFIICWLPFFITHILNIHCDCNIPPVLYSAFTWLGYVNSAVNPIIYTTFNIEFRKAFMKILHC

For Fc1ccc2c(C3CCN(CCCOc4ccc(-c5nc6ccccc6o5)cc4)CC3)noc2c1, the Ki [1] was 22.1 nM, the Ki [2] was 83.5 nM and the Ki [3] was 8.3 nM. For the same compound, the Ki [4] was 153 nM, the Ki [5] was 186 nM and the LD50 [6] was > 2000 mg/kg. For the same compound, the Ki [7] was 765 nM.

Compound Fc1ccc2c(C3CCN(CCCOc4ccc(Cc5nc6ccccc6o5)cc4)CC3)noc2c1 has a Ki [1] of 10.6 nM, a Ki [2] of 21.3 nM and a Ki [3] of 2.7 nM. The Ki [4] was 16.3 nM, the Ki [5] was 1990 nM and the LD50 [6] was > 2000 mg/kg. It also gave a Ki [7] of 18.9 nM.
